Measured values reported in patent US10287267B2, “Isoquinolin-3-yl carboxamides and preparation and use thereof” (Samumed, LLC, priority 2016, dated 2019).
Like-named read-outs stand apart in the source and are kept apart here.

How the values were obtained:
[1] = test system: Wnt pathway (Sp5-Luc reporter, TCF/LEF binding sites) in SW480 colon carcinoma cells; assay: Screening assay for Wnt activity: Sp5-Luc reporter gene assay; format: cell-based, human; conditions: Homo sapiens; for EC50: Sp5-Luc reporter, SW480 cells, 36 to 48 hours; for inhibition at 10 µM: SW480, read-out: percent inhibition at 10 μM;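 on all read-outs here: firefly luciferase luminescence read in stably transduced SW480 cells carrying the Sp5 promoter reporter with eight TCF/LEF sites, compounds given in 0.1% DMSO final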
Description: The screening assay for Wnt activity is described as follows.
Following incubation, 15 μl of BriteLite Plus luminescence reagent (Perkin Elmer) was added to each well of the 384-well assay plates. The plates were placed on an orbital shaker for 2 min and then luminescence was quantified using the Envision (Perkin Elmer) plate reader.

[2] = molecular target: recombinant DYRK1A kinase (Homo sapiens (Human), UniProt Q13627); assay: DYRK1A kinase assay (Ser/Thr 18 peptide Z-lyte FRET); format: biochemical; conditions: 30 μM ATP, 1 h room temperature;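 further: Read-out is the coumarin to fluorescein emission ratio, referenced to unphosphorylated (0%) and phosphorylated (100%) Ser/Thr 18 peptide controls, values from dose-response curves by non-linear regression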
recombinant GSK3β kinase = recombinant GSK3β kinase (Homo sapiens (Human), UniProt P49841); assay: GSK3β kinase assay (Ser/Thr 09 peptide Z-lyte FRET); format: biochemical; conditions: 46 μM ATP, 1 h room temperature;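 further: kinase activity read as coumarin to fluorescein emission ratio, 11-point threefold dilutions from 10 µM to 0.0003 µM in duplicate, unphosphorylated and phosphorylated peptide as 0% and 100% controls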
Sequence of recombinant GSK3β kinase (P49841 whole entry): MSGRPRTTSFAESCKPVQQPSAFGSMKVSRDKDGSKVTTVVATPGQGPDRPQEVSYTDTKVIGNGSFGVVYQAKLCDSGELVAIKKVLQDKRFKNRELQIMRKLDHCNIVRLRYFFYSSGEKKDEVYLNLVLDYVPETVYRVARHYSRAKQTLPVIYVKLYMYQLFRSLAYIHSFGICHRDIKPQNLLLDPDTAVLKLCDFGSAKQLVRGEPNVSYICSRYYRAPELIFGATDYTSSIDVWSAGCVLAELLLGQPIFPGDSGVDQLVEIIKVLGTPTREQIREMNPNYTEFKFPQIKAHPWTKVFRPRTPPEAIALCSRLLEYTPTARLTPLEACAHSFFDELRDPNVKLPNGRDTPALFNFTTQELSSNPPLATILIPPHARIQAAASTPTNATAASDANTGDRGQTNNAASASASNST

[3] = test system: Tau phosphorylation at Ser396 (pSer396); assay: Tau phosphorylation assay (pSer396 ELISA / western blot) in SH-SY5Y cells; format: cell-based, human; conditions: Homo sapiens, read-out: pSer396 Tau EC50;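 further: EC50 for reduction of Tau pSer396 in lysed cells, measured by colorimetric ELISA or chemiluminescent western blot, both using the same pSer396 antibody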
[4] = test system: secreted β-amyloid 40 (Aβ40) peptide; assay: Secreted β-amyloid 40 (Aβ40) peptide in APP overexpressing SH-SY5Y-APP cells; format: cell-based; conditions: Homo sapiens, overnight (16-18 hours)
Description: Representative compounds were screened using the cell-based assay procedure for secreted β-amyloid 40 (Aβ40) peptide in an APP overexpressing cell line described below.
SH-SY5Y cells were infected with lentivirus to overexpress amyloid (A4) beta precursor protein (APP), hereafter referred to as the SH-SY5Y-APP cells.
SH-SY5Y cells were seeded onto 6-well plates at
The cell assay procedure start 18 h prior to treatment, as SH-SY5Y-APP cells were seeded onto 96-well plates at
At this time, designated wells were seeded with SH-SY5Y cells that were seeded and treated with puromycin at
Cells were exposed overnight (16-18 hours) in a 37° C. incubator before supernatant was harvested. […] The original plates with seeded cells were tested for cytotoxicity by measure of adenosine triphosphate (ATP) release by adding CellTiter-Glo® diluted 1:4 in distilled water (G7573, Promega) and transferring lysed cells to a completely black 96-well plate to be read with the Cytation3. Plates containing supernatant were spun down at 1200 g for 10 minutes to remove any cellular debris. Supernatant was then diluted 1:2 with a diluent from V-PLEX Aβ40 Peptide (6E10) Kit and directly tested for secreted Aβ40 peptide (K150SKE, Meso Scale Discovery).

[5] = test system: SW480 colon carcinoma cells; assay: Cell viability assay (CellTiter-Glo); format: cell-based, human; conditions: Homo sapiens; for EC50: 96 h, SW480 cells, CellTiter-Glo, four days incubation; for inhibition at 10 µM: SW480, read-out: percent inhibition at 10 μM
[6] = test system: α-smooth muscle actin (αSMA) positive LL29 cells; assay: Inhibition of fibrotic process: αSMA in TGF-β1 treated primary human fibroblasts from IPF patients; format: cell-based; conditions: Homo sapiens, Fibroblast; for EC50: 96 h, Table 8, LL29 fibroblasts from IPF patients, TGF-β1 20 ng/mL, 4 days, dose-response 10 μM to 0.94 nM; for inhibition at 10 µM: read-out: percent value in parentheses beside EC50 >10 μM;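 on all read-outs here: controls were TGF-β1 stimulated wells with DMSO vehicle (positive) and cells given DMSO alone (negative), cultured in F12 medium with 1% fetal bovine serum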
IL-6 = IL-6 inhibition in LPS-stimulated human peripheral blood mononuclear cells (HTRF); format: cell-based; conditions: Homo sapiens, PBMC; for EC50: Table 9, huPBMCs, LPS 50 ng/mL, 22 hours, dose-response starting from 10 μM; for inhibition at 10 µM: read-out: percent value in parentheses beside EC50 >10 μM;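 on all read-outs here: IL-6 detected by HTRF with an XL665- and Cryptate-labelled anti-IL-6 antibody pair, samples run in duplicate, EC50 obtained from a four-parameter Levenberg-Marquardt curve fit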
Description: After 22 hour incubation, a mixture of anti-IL6 XL665 and anti-IL-6 Cryptate diluted in reconstitution buffer (Catalog #62IL6PEC, Cisbio Inc., Bedford, Mass.) was added to each well. […] All samples were processed in duplicate. […] EC50 was determined using software generated by Dotmatics Limited (Windhill Bishops Stortford Herts, UK) using the Levenberg-Marquardt 4 parameter fitting procedure with finite different gradients.

[7] = SH-SY5Y cells, overnight (16-18 h) exposure

SMILES	EC50 [1]	EC50 [2]	EC50 (recombinant GSK3β kinase)	EC50 [3, 7]	IC50 [4]	EC50 [5]	EC50 [6]	EC50 (IL-6)	inhibition at 10 µM [1]	inhibition at 10 µM [5]	inhibition at 10 µM [6]	inhibition at 10 µM (IL-6)	EC50 ([3]; SH-SY5Y)
Cn1cc(-c2ccc3cnc(NC(=O)C4CC4)cc3c2)cn1 [Compound 1, N-(6-(1-Methyl-1H-pyrazol-4-yl)isoquinolin-3-yl)cyclopropanecarboxamide]	650 nM	4 nM	8 nM	149 nM	3960 nM	130 nM	135 nM	338 nM	–	–	–	–	–
Cn1cc(-c2ccc3cnc(NC(=O)[C@@H]4CCCNC4)cc3c2)cn1 [Compound 111, (R)—N-(6-(1-Methyl-1H-pyrazol-4-yl)isoquinolin-3-yl)piperidine-3-carboxamide]	743 nM	3.9 nM	40 nM	597 nM	272 nM	526 nM	280 nM	–	–	–	–	–	–
Cn1cc(-c2ccc3cnc(NC(=O)C4CCN(CC(=O)O)CC4)cc3c2)cn1 [Compound 1011, 2-(4-((6-(1-Methyl-1H-pyrazol-4-yl)isoquinolin-3-yl)carbamoyl)piperidin-1-yl)acetic acid]	> 10000 nM	2.6 nM	30 nM	> 10000 nM	–	> 10000 nM	> 10000 nM	> 10000 nM	25%	25%	15.9%	15.3%	–
CN1CCCN(CC(=O)Nc2cc3cc(-c4cnn(C)c4)ccc3cn2)CC1 [Compound 1012, 2-(4-Methyl-1,4-diazepan-1-yl)-N-(6-(1-methyl-1H-pyrazol-4-yl)isoquinolin-3-yl)acetamide]	2720 nM	13 nM	155 nM	555 nM	–	3200 nM	> 10000 nM	3120 nM	–	–	10.2%	–	–
Cn1cc(-c2cc3cc(NC(=O)C4CCNCC4)ncc3cc2Cl)cn1 [Compound 1013, N-(7-Chloro-6-(1-methyl-1H-pyrazol-4-yl)isoquinolin-3-yl)piperidine-4-carboxamide]	> 10000 nM	17.1 nM	1430 nM	4200 nM	–	5500 nM	2440 nM	6820 nM	42.9%	–	–	–	–
[2H]C([2H])([2H])n1cc(-c2ccc3cnc(NC(=O)CN4CCN(C)CC4)cc3c2)cn1 [Compound 1014, N-(6-(1-(Methyl-d3)-1H-pyrazol-4-yl)isoquinolin-3-yl)-2-(4-methylpiperazin-1-yl)acetamide]	2360 nM	9.4 nM	96 nM	767 nM	–	5420 nM	695 nM	3200 nM	–	–	–	–	–
[2H]C([2H])([2H])n1cc(-c2cc3cc(NC(=O)CN4CCCCC4)ncc3cc2F)cn1 [Compound 1015, N-(7-Fluoro-6-(1-(methyl-d3)-1H-pyrazol-4-yl)isoquinolin-3-yl)-2-(piperidin-1-yl)acetamide]	3730 nM	5.8 nM	101 nM	523 nM	–	6420 nM	> 10000 nM	3120 nM	–	–	9.7%	–	–
[2H]C([2H])([2H])n1cc(-c2cc(F)c3cnc(NC(=O)CN4CCCCC4)cc3c2)cn1 [Compound 1016, N-(8-Fluoro-6-(1-(methyl-d3)-1H-pyrazol-4-yl)isoquinolin-3-yl)-2-(piperidin-1-yl)acetamide]	4060 nM	29.1 nM	87 nM	631 nM	–	6140 nM	2130 nM	> 10000 nM	–	–	–	5.4%	–
Cc1ncc(-c2ccc3cnc(NC(=O)[C@H]4CC[C@H](CN5CC(F)C5)CC4)cc3c2)o1 [Compound 1018, trans-4-((3-Fluoroazetidin-1-yl)methyl)-N-(6-(2-methyloxazol-5-yl)isoquinolin-3-yl)cyclohexane-1-carboxamide]	608 nM	2.5 nM	54 nM	280 nM	–	498 nM	88 nM	441 nM	–	–	–	–	–
Cc1ncc(-c2ccc3cnc(NC(=O)CN4CCN(C)CC4)cc3c2)o1 [Compound 1019, N-(6-(2-Methyloxazol-5-yl)isoquinolin-3-yl)-2-(4-methylpiperazin-1-yl) acetamide]	3800 nM	28.9 nM	158 nM	1500 nM	–	9380 nM	6530 nM	8970 nM	–	–	–	–	–
CC(C)CN1CCC(F)(C(=O)Nc2cc3cc(-c4cnc5n4CCNC5)ccc3cn2)CC1 [Compound 1021, 4-Fluoro-1-isobutyl-N-(6-(5,6,7,8-tetrahydroimidazo[1,2-a]pyrazin-3-yl)isoquinolin-3-yl)piperidine-4-carboxamide]	> 10000 nM	42.2 nM	1580 nM	5700 nM	–	> 10000 nM	4490 nM	> 10000 nM	16.5%	11.6%	–	5.1%	–
O=C(Nc1cc2cc(-c3cnn4c3CN(CCF)CC4)ccc2cn1)C1CCNCC1 [Compound 1022, N-(6-(5-(2-Fluoroethyl)-4,5,6,7-tetrahydropyrazolo[1,5-a]pyrazin-3-yl)isoquinolin-3-yl)piperidine-4-carboxamide]	1370 nM	4.2 nM	124 nM	9600 nM	–	3340 nM	222 nM	3290 nM	–	–	–	–	–
CC(C)CN1CCC(F)(C(=O)Nc2cc3cc(-c4cnn5c4CN(CCF)CC5)ccc3cn2)CC1 [Compound 1023, 4-Fluoro-N-(6-(5-(2-fluoroethyl)-4,5,6,7-tetrahydropyrazolo[1,5-a]pyrazin-3-yl)isoquinolin-3-yl)-1-isobutylpiperidine-4-carboxamide]	> 10000 nM	8.7 nM	838 nM	1800 nM	–	> 10000 nM	4670 nM	> 10000 nM	38.2%	39.9%	–	20.7%	–
CN1CCN(CC(=O)Nc2cc3cc(-c4cnn5c4CN(CCF)CC5)ccc3cn2)CC1 [Compound 1024, N-(6-(5-(2-Fluoroethyl)-4,5,6,7-tetrahydropyrazolo[1,5-a]pyrazin-3-yl)isoquinolin-3-yl)-2-(4-methylpiperazin-1-yl)acetamide]	3510 nM	17 nM	150 nM	1200 nM	–	6770 nM	549 nM	> 10000 nM	–	–	–	33.1%	–
Cc1nnc(-c2ccc3cnc(NC(=O)CN4CC5CCC(C4)O5)cc3c2)s1 [Compound 1029, 2-(8-Oxa-3-azabicyclo[3.2.1]octan-3-yl)-N-(6-(5-methyl-1,3,4-thiadiazol-2-yl)isoquinolin-3-yl)acetamide]	3340 nM	25.7 nM	18 nM	239 nM	–	> 10000 nM	> 10000 nM	> 10000 nM	–	34.6%	31.8%	7.3%	–
C[C@@H]1CCCN1CC(=O)Nc1cc2cc(-c3cnc4n3CCNC4)ccc2cn1 [Compound 1030, (R)-2-(2-Methylpyrrolidin-1-yl)-N-(6-(5,6,7,8-tetrahydroimidazo[1,2-a]pyrazin-3-yl)isoquinolin-3-yl)acetamide]	> 10000 nM	194 nM	390 nM	1200 nM	–	> 10000 nM	2810 nM	> 10000 nM	44.8%	19.3%	–	7.7%	–
CN(CC(=O)Nc1cc2cc(-c3cnc4n3CCNC4)ccc2cn1)C1CCC1 [Compound 1031, 2-(Cyclobutyl(methyl)amino)-N-(6-(5,6,7,8-tetrahydroimidazo[1,2-a]pyrazin-3-yl)isoquinolin-3-yl)acetamide]	3970 nM	70.4 nM	380 nM	969 nM	–	3890 nM	> 10000 nM	> 10000 nM	–	–	39.2%	2%	–
Cn1cc(-c2ccc3cnc(NC(=O)C45CCN(CC4)CC5)cc3c2)cn1 [Compound 1071, N-(6-(1-Methyl-1H-pyrazol-4-yl)isoquinolin-3-yl)quinuclidine-4-carboxamide]	> 10000 nM	16.5 nM	2730 nM	–	–	> 10000 nM	712 nM	> 10000 nM	43.2%	26.2%	–	8.8%	6900 nM
CC(C)CN1CCC(F)(C(=O)Nc2cc3cc(-n4ccnn4)ccc3cn2)CC1 [Compound 1074, N-(6-(1H-1,2,3-triazol-1-yl)isoquinolin-3-yl)-4-fluoro-1-isobutylpiperidine-4-carboxamide]	> 10000 nM	6.9 nM	278 nM	1300 nM	–	> 10000 nM	> 10000 nM	> 10000 nM	19.7%	25%	–	5.6%	–
